What all share (experiment): relative viability (nuclei count vs DMSO), 5 days (fraction); higher = more cells survive
Compound in the test “QS11 + Dasatinib”: C1CC2=C(C1)C=C(C=C2)OC3=NC(=C4C(=N3)N(C=N4)CC5=CC=C(C=C5)C6=CC=CC=C6)N[C@@H](CC7=CC=CC=C7)CO [QS11] + Cc1nc(Nc2ncc(C(=O)Nc3c(C)cccc3Cl)s2)cc(N2CCN(CCO)CC2)n1 [Dasatinib] (partner 0.075 µM)
Summed up: (§1)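 Medians of duplicate plates are given as relative viability. That measure is the nuclei count in treated wells divided by the count in vehicle wells. Counts were taken on 4× images of lung cancer cell lines in 1536-well plates, 5 days after pin-tool dosing the day after seeding with one drug alone or a fixed anchor-drug dose plus five library-drug doses (not always all listed) in √10 steps.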

Compound in the test “AZ628 + AZD7762”: CC1=C(C=C(C=C1)NC(=O)C2=CC(=CC=C2)C(C)(C)C#N)NC3=CC4=C(C=C3)N=CN(C4=O)C [AZ628] + NC(=O)Nc1cc(-c2cccc(F)c2)sc1C(=O)N[C@H]1CCCNC1 [AZD7762] (partner 0.2 µM)
In outline:
as §1

Compound in the test “AZ628 + OSI-027”: CC1=C(C=C(C=C1)NC(=O)C2=CC(=CC=C2)C(C)(C)C#N)NC3=CC4=C(C=C3)N=CN(C4=O)C [AZ628] + COc1cccc2cc(-c3nc([C@H]4CC[C@H](C(=O)O)CC4)n4ncnc(N)c34)[nH]c12 [OSI-027] (partner 0.5 µM)
Summed up:
as §1

Compound in the test “QS11 + Palbociclib”: C1CC2=C(C1)C=C(C=C2)OC3=NC(=C4C(=N3)N(C=N4)CC5=CC=C(C=C5)C6=CC=CC=C6)N[C@@H](CC7=CC=CC=C7)CO [QS11] + CC(=O)c1c(C)c2cnc(Nc3ccc(N4CCNCC4)cn3)nc2n(C2CCCC2)c1=O [Palbociclib] (partner 0.5 µM)
In outline: as §1

With SW 900, the relative viability with QS11 + Dasatinib (first compound 0.08 µM) was 0.629; with QS11 + Dasatinib (first compound 0.253 µM) it was 0.529; in the test with QS11 + Dasatinib (first compound 0.8 µM), 0.428; with QS11 + Dasatinib (first compound 2.53 µM) it was 0.417; in the test with QS11 + Dasatinib (first compound 8 µM), 0.521; with AZ628 + AZD7762 (first compound 0.08 µM) it was 0.552. The relative viability in the test with AZ628 + AZD7762 (first compound 0.253 µM) was 0.552; with AZ628 + AZD7762 (first compound 0.8 µM) it was 0.494; with AZ628 + AZD7762 (first compound 2.53 µM), 0.634; in the test with AZ628 + AZD7762 (first compound 8 µM), 0.378; in the test with AZ628 + OSI-027 (first compound 0.08 µM), 0.61; with AZ628 + OSI-027 (first compound 0.253 µM), 0.566. Further, the relative viability worked out at 0.501 with AZ628 + OSI-027 (first compound 0.8 µM); 0.345 with AZ628 + OSI-027 (first compound 2.53 µM); 0.474 with AZ628 + OSI-027 (first compound 8 µM); 0.588 with QS11 + Palbociclib (first compound 0.08 µM); 0.593 with QS11 + Palbociclib (first compound 0.253 µM); 0.456 with QS11 + Palbociclib (first compound 0.8 µM). Further, the figures for the relative viability with QS11 + Palbociclib (first compound 2.53 µM) and in the test with QS11 + Palbociclib (first compound 8 µM) were 0.481 and 0.425, respectively.

Turning to HCC-15, the relative viability with QS11 + Dasatinib (first compound 0.08 µM) amounted to 0.649; with QS11 + Dasatinib (first compound 0.253 µM) it was 0.611; in the test with QS11 + Dasatinib (first compound 0.8 µM), 0.532; with QS11 + Dasatinib (first compound 2.53 µM), 0.73; with QS11 + Dasatinib (first compound 8 µM), 0.49; with AZ628 + AZD7762 (first compound 0.08 µM), 1.16. The relative viability in the test with AZ628 + AZD7762 (first compound 0.253 µM) was determined as 1.07; in the test with AZ628 + AZD7762 (first compound 0.8 µM) it was 1.08; with AZ628 + AZD7762 (first compound 2.53 µM), 1.01; with AZ628 + AZD7762 (first compound 8 µM) it was 0.894; with AZ628 + OSI-027 (first compound 0.08 µM), 0.751; in the test with AZ628 + OSI-027 (first compound 0.253 µM), 0.582. The relative viability with AZ628 + OSI-027 (first compound 0.8 µM) came out at 0.461; with AZ628 + OSI-027 (first compound 2.53 µM), 0.433; with AZ628 + OSI-027 (first compound 8 µM), 0.236; in the test with QS11 + Palbociclib (first compound 0.08 µM), 0.765; in the test with QS11 + Palbociclib (first compound 0.253 µM) it was 0.808; with QS11 + Palbociclib (first compound 0.8 µM) it was 0.579. Further, the relative viability with QS11 + Palbociclib (first compound 2.53 µM) is 0.701; in the test with QS11 + Palbociclib (first compound 8 µM), 0.542.

Take NCI-H1915: the relative viability turned out to be 0.348 with QS11 + Dasatinib (first compound 0.08 µM); 0.321 in the test with QS11 + Dasatinib (first compound 0.253 µM); 0.35 with QS11 + Dasatinib (first compound 2.53 µM); 0.239 with QS11 + Dasatinib (first compound 8 µM); 0.741 with AZ628 + AZD7762 (first compound 0.08 µM); 0.782 in the test with AZ628 + AZD7762 (first compound 0.253 µM). The relative viability with AZ628 + AZD7762 (first compound 0.8 µM) turned out to be 0.644; in the test with AZ628 + AZD7762 (first compound 2.53 µM) it was 0.558; with AZ628 + AZD7762 (first compound 8 µM), 0.271; in the test with AZ628 + OSI-027 (first compound 0.08 µM), 0.447; with AZ628 + OSI-027 (first compound 0.253 µM), 0.476; with AZ628 + OSI-027 (first compound 0.8 µM), 0.428. Further, the relative viability in the test with AZ628 + OSI-027 (first compound 2.53 µM) came to 0.355; with AZ628 + OSI-027 (first compound 8 µM) it was 0.243; with QS11 + Palbociclib (first compound 0.08 µM), 0.53; with QS11 + Palbociclib (first compound 0.253 µM) it was 0.644; with QS11 + Palbociclib (first compound 2.53 µM) it was 0.5; in the test with QS11 + Palbociclib (first compound 8 µM), 0.486.

Turning to NCI-H2347, the relative viability with QS11 + Dasatinib (first compound 0.08 µM) is 0.279; with QS11 + Dasatinib (first compound 0.253 µM), 0.297; with QS11 + Dasatinib (first compound 0.8 µM), 0.308; in the test with QS11 + Dasatinib (first compound 2.53 µM), 0.274; with QS11 + Dasatinib (first compound 8 µM), 0.308; with AZ628 + AZD7762 (first compound 0.08 µM) it was 0.684. Also, the relative viability in the test with AZ628 + AZD7762 (first compound 0.253 µM) amounted to 0.575; with AZ628 + AZD7762 (first compound 0.8 µM), 0.709; in the test with AZ628 + AZD7762 (first compound 2.53 µM), 0.566; in the test with AZ628 + AZD7762 (first compound 8 µM), 0.34; with AZ628 + OSI-027 (first compound 0.08 µM), 0.337; with AZ628 + OSI-027 (first compound 0.253 µM) it was 0.377. Also, the relative viability in the test with AZ628 + OSI-027 (first compound 0.8 µM) turned out to be 0.396; with AZ628 + OSI-027 (first compound 2.53 µM), 0.339; in the test with AZ628 + OSI-027 (first compound 8 µM) it was 0.254; with QS11 + Palbociclib (first compound 0.08 µM) it was 0.375; in the test with QS11 + Palbociclib (first compound 0.253 µM) it was 0.476; with QS11 + Palbociclib (first compound 0.8 µM), 0.414. Also, the figures for the relative viability with QS11 + Palbociclib (first compound 2.53 µM) and with QS11 + Palbociclib (first compound 8 µM) were 0.4 and 0.354, respectively.

As for EKVX, the relative viability came to 0.529 with QS11 + Dasatinib (first compound 0.08 µM); 0.503 with QS11 + Dasatinib (first compound 0.253 µM); 0.512 with QS11 + Dasatinib (first compound 0.8 µM); 0.505 with QS11 + Dasatinib (first compound 2.53 µM); 0.589 with QS11 + Dasatinib (first compound 8 µM); 0.71 in the test with AZ628 + AZD7762 (first compound 0.08 µM). Besides, the relative viability came to 0.755 with AZ628 + AZD7762 (first compound 0.253 µM); 0.558 with AZ628 + AZD7762 (first compound 0.8 µM); 0.704 in the test with AZ628 + AZD7762 (first compound 2.53 µM); 0.64 with AZ628 + AZD7762 (first compound 8 µM); 0.715 with AZ628 + OSI-027 (first compound 0.08 µM); 0.673 with AZ628 + OSI-027 (first compound 0.253 µM). Also, the relative viability in the test with AZ628 + OSI-027 (first compound 0.8 µM) turned out to be 0.804; with AZ628 + OSI-027 (first compound 2.53 µM) it was 0.764; with AZ628 + OSI-027 (first compound 8 µM), 0.572; in the test with QS11 + Palbociclib (first compound 0.08 µM), 0.401; with QS11 + Palbociclib (first compound 0.253 µM), 0.375; in the test with QS11 + Palbociclib (first compound 0.8 µM) it was 0.33. For the same cell line, the relative viability with QS11 + Palbociclib (first compound 2.53 µM) turned out to be 0.284; with QS11 + Palbociclib (first compound 8 µM), 0.391.

LC-2-ad: the relative viability stood at 0.535 with QS11 + Dasatinib (first compound 0.08 µM); 0.537 with QS11 + Dasatinib (first compound 0.253 µM); 0.614 with QS11 + Dasatinib (first compound 0.8 µM); 0.693 in the test with QS11 + Dasatinib (first compound 2.53 µM); 0.79 with QS11 + Dasatinib (first compound 8 µM); 0.909 with AZ628 + AZD7762 (first compound 0.08 µM). Besides, the relative viability in the test with AZ628 + AZD7762 (first compound 0.253 µM) was 0.85; with AZ628 + AZD7762 (first compound 0.8 µM) it was 1.02; in the test with AZ628 + AZD7762 (first compound 2.53 µM), 0.922; with AZ628 + AZD7762 (first compound 8 µM) it was 0.759; with AZ628 + OSI-027 (first compound 0.08 µM), 0.817; in the test with AZ628 + OSI-027 (first compound 0.253 µM) it was 0.87. The relative viability stood at 0.779 with AZ628 + OSI-027 (first compound 0.8 µM); 0.821 in the test with AZ628 + OSI-027 (first compound 2.53 µM); 0.703 with AZ628 + OSI-027 (first compound 8 µM); 0.512 with QS11 + Palbociclib (first compound 0.08 µM); 0.47 with QS11 + Palbociclib (first compound 0.253 µM); 0.405 in the test with QS11 + Palbociclib (first compound 0.8 µM). Besides, the relative viability with QS11 + Palbociclib (first compound 2.53 µM) was found to be 0.451; with QS11 + Palbociclib (first compound 8 µM) it was 0.501.
